# ChEMBL document CHEMBL1201862, “PubChem BioAssay data set” (2004)
#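 Test compounds were applied to cells in 96-well plates for 48 hours at 5 doses. GI50 = concentration required for 50% inhibition of growth.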 Activity calls are given as the source filed them. Rule as the data show it: active = GI50 up to about 1.1 µM and inactive = higher.
# Legend:
# Experiment in all cases: NCI-60 cell line screen, 48 h
# HCT-116 = test system: HCT-116
# ACHN = test system: ACHN
# HCT-15 = test system: HCT-15
# SK-MEL-2 = test system: SK-MEL-2
# UACC-62 = test system: UACC-62
# SNB-19 = test system: SNB-19
# MDA-MB-231 = test system: MDA-MB-231
# HT-29 = test system: HT-29
# SK-MEL-5 = test system: SK-MEL-5
# DU-145 = test system: DU-145
# SK-MEL-28 = test system: SK-MEL-28
# OVCAR-8 = test system: OVCAR-8
# SR = test system: SR
# M14 = test system: M14
# TK-10 = test system: TK-10
# SW-620 = test system: SW-620
# OVCAR-4 = test system: OVCAR-4
# OVCAR-5 = test system: OVCAR-5
# NCI/ADR-RES = test system: NCI/ADR-RES
# HOP-92 = test system: HOP-92
SMILES,GI50 (HCT-116),GI50 (ACHN),GI50 (HCT-15),GI50 (SK-MEL-2),GI50 (UACC-62),GI50 (SNB-19),GI50 (MDA-MB-231),GI50 (HT-29),GI50 (SK-MEL-5),GI50 (DU-145),GI50 (SK-MEL-28),GI50 (OVCAR-8),GI50 (SR),GI50 (M14),GI50 (TK-10),GI50 (SW-620),GI50 (OVCAR-4),GI50 (OVCAR-5),GI50 (NCI/ADR-RES),GI50 (HOP-92)
COP(=O)(/C=C/c1cc(C(=O)OCc2ccccc2)n(S(=O)(=O)c2ccccc2)c1)OC,> 100 µM (inactive),> 100 µM (inactive),> 100 µM,> 100 µM (inactive),> 100 µM (inactive),> 100 µM (inactive),> 100 µM (inactive),> 100 µM (inactive),> 100 µM (inactive),> 100 µM (inactive),> 100 µM (inactive),> 100 µM (inactive),> 10 µM (inactive),> 100 µM (inactive),> 100 µM (inactive),> 100 µM (inactive),> 100 µM (inactive),> 100 µM (inactive),> 100 µM (inactive),–
COc1cc([C@@H]2c3cc(O)c(OC)cc3C=C(C(N)=O)[C@H]2C(N)=O)ccc1O,> 100 µM (inactive),> 100 µM (inactive),> 100 µM,–,–,> 100 µM (inactive),> 100 µM (inactive),> 100 µM (inactive),> 100 µM (inactive),> 100 µM (inactive),> 100 µM (inactive),> 100 µM (inactive),> 100 µM (inactive),> 100 µM (inactive),–,> 100 µM (inactive),–,> 100 µM (inactive),> 100 µM (inactive),> 100 µM (inactive)
CCOP(=O)(OCC)C(N)c1ccc(Cl)cc1 (stereo not given),> 100 µM (inactive),> 100 µM (inactive),> 100 µM,> 100 µM (inactive),> 100 µM (inactive),> 100 µM (inactive),> 100 µM (inactive),> 100 µM (inactive),> 100 µM (inactive),> 100 µM (inactive),> 100 µM (inactive),> 100 µM (inactive),–,> 100 µM (inactive),> 100 µM (inactive),> 100 µM (inactive),> 100 µM (inactive),> 100 µM (inactive),> 100 µM (inactive),> 100 µM (inactive)
Cc1nc(N)c(N2CCN(CN)CC2)c(O)n1,> 100 µM (inactive),> 100 µM (inactive),> 100 µM,> 100 µM (inactive),–,> 100 µM (inactive),> 100 µM (inactive),> 100 µM (inactive),–,> 100 µM (inactive),> 100 µM (inactive),> 100 µM (inactive),> 100 µM (inactive),> 100 µM (inactive),> 100 µM (inactive),> 100 µM (inactive),> 100 µM (inactive),> 100 µM (inactive),> 100 µM (inactive),–
O=C(/C=C/c1cccs1)c1ccc(Cl)cc1,41.5 µM (inactive),> 100 µM (inactive),41 µM,> 100 µM (inactive),> 100 µM (inactive),> 100 µM (inactive),> 100 µM (inactive),39.7 µM (inactive),65.2 µM (inactive),> 100 µM (inactive),> 100 µM (inactive),90.4 µM (inactive),28.1 µM (inactive),–,> 100 µM (inactive),28.8 µM (inactive),–,> 100 µM (inactive),> 100 µM (inactive),–
Cc1ccc(OCC2OC(n3cnc4nc(Nc5ccc(Cl)c(Cl)c5)nc(Cl)c43)CC2Oc2ccc(C)cc2)cc1 (stereo not given),> 100 µM (inactive),> 100 µM (inactive),> 100 µM,> 100 µM (inactive),> 100 µM (inactive),> 100 µM (inactive),> 100 µM (inactive),> 100 µM (inactive),> 100 µM (inactive),> 100 µM (inactive),> 100 µM (inactive),> 100 µM (inactive),–,> 100 µM (inactive),> 100 µM (inactive),> 100 µM (inactive),> 100 µM (inactive),> 100 µM (inactive),> 100 µM (inactive),–
Cc1ccc(O)c(-c2cc(-c3cccc(Br)c3)c(C#N)c(N)n2)c1,20 µM (inactive),18.2 µM (inactive),12.9 µM,20.7 µM (inactive),16.4 µM (inactive),19.3 µM (inactive),20.4 µM (inactive),23.9 µM (inactive),19.2 µM (inactive),29.6 µM (inactive),–,32.3 µM (inactive),19.3 µM (inactive),31.9 µM (inactive),18.2 µM (inactive),23.8 µM (inactive),< 0.01 µM (active),41.5 µM (inactive),45.9 µM (inactive),–
CC1=NN(c2ccc(S(=O)(=O)O)cc2)C2(C1)SCC(=O)N2c1nc2ccccc2s1 (stereo not given),> 100 µM (inactive),> 100 µM (inactive),> 100 µM,> 100 µM (inactive),> 100 µM (inactive),> 100 µM (inactive),> 100 µM (inactive),> 100 µM (inactive),> 100 µM (inactive),> 100 µM (inactive),> 100 µM (inactive),> 100 µM (inactive),–,> 100 µM (inactive),> 100 µM (inactive),> 100 µM (inactive),> 100 µM (inactive),> 100 µM (inactive),> 100 µM (inactive),> 100 µM (inactive)
O=C(O)c1ccc(Nc2nc3cc(C(F)(F)F)ccc3nc2C(=O)O)cc1,> 100 µM (inactive),> 100 µM (inactive),> 100 µM,> 100 µM (inactive),–,> 100 µM (inactive),> 100 µM (inactive),> 100 µM (inactive),> 100 µM (inactive),> 100 µM (inactive),> 100 µM (inactive),> 100 µM (inactive),> 100 µM (inactive),–,–,> 100 µM (inactive),> 100 µM (inactive),> 100 µM (inactive),> 100 µM (inactive),–
Cc1cccc2c(O)c3c(O)cc(O)cc3nc12,> 10 µM (inactive),> 10 µM (inactive),> 10 µM,> 10 µM (inactive),> 10 µM (inactive),> 10 µM (inactive),> 10 µM (inactive),> 10 µM (inactive),9.71 µM (inactive),> 10 µM (inactive),> 10 µM (inactive),> 10 µM (inactive),–,> 10 µM (inactive),> 10 µM (inactive),> 10 µM (inactive),> 10 µM (inactive),> 10 µM (inactive),> 10 µM (inactive),> 10 µM (inactive)
CO/N=C(/C(=O)OC)c1ccccc1COc1cccc(C(F)(F)F)c1,10.8 µM (inactive),33.3 µM (inactive),29.2 µM,36.1 µM (inactive),18.2 µM (inactive),71.4 µM (inactive),72.8 µM (inactive),46.9 µM (inactive),4.79 µM (inactive),26.5 µM (inactive),78.7 µM (inactive),–,–,24.6 µM (inactive),11.4 µM (inactive),42.5 µM (inactive),19.5 µM (inactive),76.2 µM (inactive),36.9 µM (inactive),36.2 µM (inactive)
CCOC(=O)C(Cc1ccc(OC(=O)c2ccc(OC)cc2OC)cc1)NC(=O)C(F)(F)F (stereo not given),34.1 µM (inactive),17.2 µM (inactive),21.1 µM,24.6 µM (inactive),16.1 µM (inactive),33.6 µM (inactive),57.7 µM (inactive),20.7 µM (inactive),37.3 µM (inactive),19.8 µM (inactive),–,22.8 µM (inactive),–,17.5 µM (inactive),22.2 µM (inactive),> 100 µM (inactive),23.5 µM (inactive),> 100 µM (inactive),32 µM (inactive),23.1 µM (inactive)
COc1ccc(N2C(=O)C3c4[nH]c5ccc(OC)cc5c4C4CCC(C(C)C)CC4C3C2=O)cc1 (stereo not given),> 55.3 µM (inactive),> 100 µM (inactive),> 100 µM,> 59.4 µM (inactive),> 31.6 µM (inactive),35.6 µM (inactive),30.4 µM (inactive),> 100 µM (inactive),> 100 µM (inactive),> 100 µM (inactive),> 73.6 µM (inactive),> 29.4 µM (inactive),–,34.1 µM (inactive),> 100 µM (inactive),> 75.3 µM (inactive),> 55.1 µM (inactive),> 100 µM (inactive),> 100 µM (inactive),> 54.2 µM (inactive)
CC(=O)/C(=C/NC(=S)N/N=C1\C(=O)Nc2ccccc21)C(=O)Nc1ccccc1C,95.3 µM (inactive),96.2 µM (inactive),> 100 µM,> 100 µM (inactive),> 100 µM (inactive),> 100 µM (inactive),91.6 µM (inactive),> 100 µM (inactive),65.3 µM (inactive),47.1 µM (inactive),> 100 µM (inactive),> 100 µM (inactive),–,> 100 µM (inactive),> 100 µM (inactive),> 100 µM (inactive),> 100 µM (inactive),> 100 µM (inactive),> 100 µM (inactive),> 100 µM (inactive)
COc1cccc(/C=C2\SC(=S)N(/C=C3\C(=O)Oc4ccccc4C3=O)C2=O)c1O,56.9 µM (inactive),46 µM (inactive),43.2 µM,45.7 µM (inactive),53 µM (inactive),41.9 µM (inactive),33.2 µM (inactive),78.3 µM (inactive),35.8 µM (inactive),74.5 µM (inactive),40.4 µM (inactive),80 µM (inactive),30.6 µM (inactive),39.4 µM (inactive),–,44.1 µM (inactive),82.4 µM (inactive),> 100 µM (inactive),41 µM (inactive),–
